IC50 data for eight compounds are collected here from US20180230166A1 (Merck Sharp & Dohme Corp., priority 2015, published 2018).

The test deals with T1, endogenous CETP from serum (Homo sapiens, UniProt P11597).
T1 construct: yielding a concentration of approximately 15 nM endogenous CETP in the assay; from tissue; host or cells: human serum (95% of the assay volume)
T1 sequence (P11597 18-493): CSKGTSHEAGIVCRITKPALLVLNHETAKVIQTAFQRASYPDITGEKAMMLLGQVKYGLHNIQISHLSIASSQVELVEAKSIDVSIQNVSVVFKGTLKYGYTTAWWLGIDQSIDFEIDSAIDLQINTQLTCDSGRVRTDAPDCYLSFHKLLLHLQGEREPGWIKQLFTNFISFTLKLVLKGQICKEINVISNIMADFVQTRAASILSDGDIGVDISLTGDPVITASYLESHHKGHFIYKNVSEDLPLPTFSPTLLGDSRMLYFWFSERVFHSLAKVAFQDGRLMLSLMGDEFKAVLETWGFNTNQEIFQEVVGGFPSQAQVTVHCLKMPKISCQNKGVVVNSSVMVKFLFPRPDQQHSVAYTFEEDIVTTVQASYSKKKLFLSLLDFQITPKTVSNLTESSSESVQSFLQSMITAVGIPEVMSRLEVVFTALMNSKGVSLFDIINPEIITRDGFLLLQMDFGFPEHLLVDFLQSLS
The experiment in a line: RTA assay in 95% human serum (95% RTA), CETP-catalyzed CE and TG transfer. In kind it is biochemical. On the procedure:
Reagents and sources are: [3H] cholesteryl oleate (GE #TRK.886), [3H] Triolein (Perkin-Elmer NET-431), Butylated hydroxyl toluene (Aldrich, #D4740-4), DOPC (Sigma, #P6354), Sodium Bromide (Fisher scientific #S255-500), PEG 8000 (Fisher, #BP233-1), and human HDL (Intracel Corp #RP-036).
Both assays measure the transfer of [3H] cholesteryl oleate or [3H] triolein from exogenous LDL to HDL.
Radiolabeled donor particles are generated by first combining 100 μl of 200 μM butylated hydroxyl toluene in CHCl3, 216 μL of 21.57 mM DOPC in EtOH, and either 500 μCi [3H]-triolein (Perkin Elmer #NET-431) or 500 μCi [3H]-cholesteryl oleate (GE #TRK886) in a glass tube. Reagents are mixed, dried under nitrogen, and then resuspended in 2 mL of 50 mM Tris, 27 μM EDTA at pH 7.4. After a brief vortex, the solution is sonicated until clear and mixed with 20 mL of fresh human serum. The mixture is incubated overnight at 37° C. The [3H] labeled LDL substrate is separated at 1.063 g/ml density by sequential ultracentrifugal flotation in NaBr according to the method of Havel, Eder, et al., 1955, and Chapman, Goldstein, et al., 1981. Once isolated the particles are dialyzed 3× in CETP buffer (50 mM Tris, pH 7.4, 100 mM NaCl, 1 mM EDTA). Human HDL is purchased from Intracel and used as the acceptor particles.
Transfer assays are performed in a 96-well v-bottom polypropylene plate. […] 1 μL of each test compound diluted in DMSO is added to 47 μL of assay cocktail per well and incubated at 37° C. for 1 hour. To initiate the transfer reaction, 2 μL radiolabeled LDL is added. After an additional 60 min of incubation at 37° C., the transfer action is terminated by precipitation of LDL with an equal volume of 20% W/V PEG 8000. The plates are centrifuged at 2000 rpm for 30 minutes at 4° C. A 40 μL aliquot of the HDL-containing supernatant is transferred to a Packard Optiplate™ with 200 μL of MicroScint™ 20. After mixing, plates are counted by liquid scintillation. Counts present in the supernatant for blanks (wells containing only HDL acceptor, CETP buffer and DMSO) are subtracted from those containing test compounds and used to correct for non-specific transfer.
For the transfer assay using endogenous CETP from serum (95% RTA), the same procedure is used except that human serum is added such that a final concentration of serum of 95% of the total assay volume is achieved, yielding a concentration of approximately 15 nM endogenous CETP in the assay. This is then combined with HDL and CETP buffer and the reaction proceeds as above and is terminated as described.
Comparison of the counts of samples with inhibitors to an uninhibited (DMSO only) positive control yield a percent inhibition. A plot of percent inhibition vs. log of inhibitor concentration, fit to a Sigmoidal 4 parameter equation is used to calculate IC50.
Starting materials are commercially available or are made using known procedures or as shown below. The examples may be synthesized using the general schemes provided below. The data reported for the examples below were obtained using the RTA assay in 95% human serum. […] When compounds of Formula I are mentioned herein, such compounds include compounds defined generically by Formula I and also the specific examples disclosed herein.

[1] abbreviates: RTA assay in 95% human serum, read-out: IC50.

Read-outs that look alike come from different tables or passages of the source.

With `COc1ccc(-c2ccc(C(=O)O)cc2C)cc1-c1ccc(C(F)(F)F)cc1[C@@H]1CC[C@H]2[C@@H](c3cc(C(F)(F)F)cc(C(F)(F)F)c3)CC(=O)N12` [Example 2, 2″-((3S,7R,7aS)-7-(3,5-bis(trifluoromethyl)phenyl)-5-oxohexahydro-1H-pyrrolizin-3-yl)-4′-methoxy-2-methyl-4″-(trifluoromethyl)-[1,1′:3′,1″-terphenyl]-4-carboxylic acid], the IC50 (95% human serum, endogenous CETP, read-out: RTA (95% HS)) stood at 1830 nM.
On to `COc1ncc(-c2c(C)cc(C(=O)O)cc2C)cc1-c1ccc(C(F)(F)F)cc1[C@@H]1CC[C@H]2[C@@H](c3cc(C(F)(F)F)cc(C(F)(F)F)c3)SC(=O)N12` [Example 3, 4-{5-[2-{(1R,5S,7aS)-1-[3,5-bis(trifluoromethyl)phenyl]-3-oxotetrahydro-1H-pyrrolo[1,2-c][1,3]thiazol-5-yl}-4-(trifluoromethyl)phenyl]-6-methoxypyridin-3-yl}-3,5-dimethylbenzoic acid], for which the IC50 under setting [1] amounted to 164 nM.
On the same count and under the same terms, then `COc1ncc(-c2ccc(C(=O)O)cc2C)cc1-c1ccc(C(F)(F)F)cc1[C@@H]1CC[C@H]2[C@@H](c3cc(C(F)(F)F)cc(C(F)(F)F)c3)SC(=O)N12` [Example 4, 4-{5-[2-{(1R,5S,7aS)-1-[3,5-bis(trifluoromethyl)phenyl]-3-oxotetrahydro-1H-pyrrolo[1,2-c][1,3]thiazol-5-yl}-4-(trifluoromethyl)phenyl]-6-methoxypyridin-3-yl}-3-methylbenzoic acid], with 559 nM.
On the same count and under the same terms, the figure for `COc1ncc(-c2ccc(C(=O)O)cc2C)cc1-c1ccc(C(F)(F)F)cc1[C@@H]1CC[C@H]2[C@@H](c3cc(F)cc(C(F)(F)F)c3)SC(=O)N12` [Example 5, 4-{5-[2-{(1R,5S,7aS)-1-[3-fluoro-5-(trifluoromethyl)phenyl]-3-oxotetrahydro-1H-pyrrolo[1,2-c][1,3]thiazol-5-yl}-4-(trifluoromethyl)phenyl]-6-methoxypyridin-3-yl}-3-methylbenzoic acid] is 285 nM; for `COc1ccc(-c2ccc(C(=O)O)cc2C)cc1-c1ccc(C(F)(F)F)cc1[C@@H]1CC[C@H]2[C@@H](c3cc(F)cc(C(F)(F)F)c3)SC(=O)N12` [Example 6, 2″-{(1R,5S,7aS)-1-[3-flluoro-5-(trifluoromethyl)phenyl]-3-oxotetrahydro-1H-pyrrolo[1,2-c][1,3]thiazol-5-yl}-4′-methoxy-2-methyl-4″-(trifluoromethyl)-1,1′:3′,1″-terphenyl-4-carboxylic acid] it is 926 nM.
The same measure, in the same setting: the figure for `COc1cc(F)c(C(C)C)cc1-c1ccc(C(F)(F)F)cc1[C@@H]1CC[C@H]2[C@@H](c3cc(F)cc(C(F)(F)F)c3)SC(=O)N12` [Example 7, (1R,5S,7aS)-5-[4′-fluoro-2′-methoxy-5′-(1-methylethyl)-4-(trifluoromethyl)biphenyl-2-yl]-1-[3-fluoro-5-(trifluoromethyl)phenyl]tetrahydro-1H-pyrrolo[1,2-c][1,3]thiazol-3-one] is 2000 nM; for `COc1ncc(-c2c(C)cc(C(=O)O)cc2C)cc1-c1ccc(C(F)(F)F)cc1[C@@H]1CC[C@H]2[C@@H](c3ccnc(C(F)(F)F)c3)SC(=O)N12` [Example 8, 4-{6-methoxy-5-[2-{(1R,5S,7aS)-3-oxo-1-[2-(trifluoromethyl)pyridin-4-yl]tetrahydro-1H-pyrrolo[1,2-c][1,3]thiazol-5-yl}-4-(trifluoromethyl)phenyl]pyridin-3-yl}-3,5-dimethylbenzoic acid] it is 143 nM.
Regarding `COc1ccc(-c2ccc(C(=O)O)cc2C)cc1-c1ccc(C(F)(F)F)cc1[C@@H]1CC[C@H]2[C@@H](c3ccnc(C(F)(F)F)c3)SC(=O)N12` [Example 9, 4′-methoxy-2-methyl-2″-{(1R,5S,7aS)-3-oxo-1-[2-(trifluoromethyl)pyridin-4-yl]tetrahydro-1H-pyrrolo[1,2-c][1,3]thiazol-5-yl}-4″-(trifluoromethyl)-1,1′:3′,1″-terphenyl-4-carboxylic acid], under setting [1], the IC50 is 1990 nM.
